The record followed here is US5039684A, “Tetrazole amide derivatives of heterocyclic alkenyl acid and their use as antiallergic substances” (Valeas S. p. A., priority 1989, dated 1991).

Series [1] has as its system passive cutaneous anaphylaxis. Kind of series: PCA test on the rat, oral administration before challenge with antigen. Format: in vivo, rat (male Sprague Dawley). The note with it: for inhibition in vivo at 3 mg/kg / inhibition in vivo at 10 mg/kg / inhibition in vivo at 30 mg/kg / inhibition in vivo at 1 mg/kg / ED50 / inhibition in vivo at 0.3 mg/kg: Rattus norvegicus, po; for inhibition in vivo at 3 mg/kg / inhibition in vivo at 10 mg/kg / inhibition in vivo at 30 mg/kg: read-out: inhibition (%); for ED50: 5 min, Table 2, oral administration, read-out: ED50 (conf. lim) P = 0.05; for ED50 OS/ED50 iv: oral 5 minutes before challenge / i.v. immediately before challenge. Here is the method:
The serum, obtained from rats actively sensitized with ovalbumin (antigen) and suitably diluted, was injected intradermically into the shaven back of male Sprague Dawley rats (2 wheals per rat). The rats were treated intravenously after 24 hours with a solution of ovalbumin and Evans blue. Thirty minutes later they were killed and the diameter and intensity of the blue ring formed at the site of the intradermic injection were measured. […] The pharmacological screening was effected by administering the compounds of the present invention intravenously and orally. For intravenous administration (2 ml/kg), those compounds in which R1 =H (see formula I) were dissolved in an aqueous 1% NaHCO3 solution whereas for oral administration (4 ml/Kg) they were either suspended in 0.5% carboxymethylcellulose or dissolved in an aqueous 3% NaHCO3 solution.

A short description of series [2]: Acute toxicity in the mouse, oral administration. Conditions: mouse, in vivo, po, 1000 mg/kg, oral, 1000 mg/kg/os; read-out: mortality (%EAD). Format: in vivo. How it is done: (§1) Acute toxicity was evaluated in the mouse by administering the compounds orally at scalar doses to a maximum of 1000 mg/kg to evaluate the 50% lethal dose (LD50). The compounds were administered in carboxymethylcellulose (0.5%) in a volume of […] to male mice (Swiss stock) of average weight 20 g.

Another series relates to mouse. Put plainly: Acute toxicity in the mouse, oral administration. Type of series: in vivo. How it is done: as §1
The subject of series [3] is passive cutaneous anaphylaxis. Kind of series: PCA test on the rat, time response curve after oral administration. Format: in vivo, rat (male Sprague Dawley). Conditions: Rattus norvegicus; for inhibition in vivo at 30 mg/kg: read-out: inhibition %; for inhibition in vivo at 10 mg/kg: 10 mg/kg/os; for inhibition in vivo at 1 mg/kg: 1 mg/kg/os; for inhibition in vivo at 3 mg/kg: 3 mg/kg/os. Here is the method:
(§2) The serum, obtained from rats actively sensitized with ovalbumin (antigen) and suitably diluted, was injected intradermically into the shaven back of male Sprague Dawley rats (2 wheals per rat).
(§3) The rats were treated intravenously after 24 hours with a solution of ovalbumin and Evans blue. Thirty minutes later they were killed and the diameter and intensity of the blue ring formed at the site of the intradermic injection were measured.
(§4) For each treated group (5 per group) the % inhibition was then calculated with respect to the control group.
(§5) For intravenous administration (2 ml/kg), those compounds in which R1 =H (see formula I) were dissolved in an aqueous 1% NaHCO3 solution whereas for oral administration (4 ml/Kg) they were either suspended in 0.5% carboxymethylcellulose or dissolved in an aqueous 3% NaHCO3 solution.

The test system of series [4] is passive cutaneous anaphylaxis. Put plainly: PCA test on the rat, intravenous administration just before challenge with antigen. Type of series: in vivo, rat (male Sprague Dawley). Conditions: Rattus norvegicus, iv; for ED50: read-out: ED50 (conf. lim) P = 0.05. Here is the method: as §2, §3, §4
The pharmacological screening was effected by administering the compounds of the present invention intravenously and orally.
as §5

Where [5] appears, read: 3 mg/kg, 5 minutes before challenge.
Where [6] appears, read: 10 mg/kg, 5 minutes before challenge.
[7] abbreviates: 30 mg/kg, 5 minutes before challenge.
Where [8] appears, read: 5 min, oral, 30 mg/kg/os, 5 minutes before challenge.
The mark [9] stands for this setting: 0.25 h, oral, 30 mg/kg/os, 15 minutes before challenge.
[10] abbreviates: 0.5 h, oral, 30 mg/kg/os, 30 minutes before challenge.
[11] abbreviates: 1 h, oral, 30 mg/kg/os, 60 minutes before challenge.
Where [12] appears, read: 2 h, oral, 30 mg/kg/os, 120 minutes before challenge.
[13] abbreviates: 1 mg/kg, immediately before challenge, read-out: inhibition (%).
Setting [14] is: 0.3 mg/kg, immediately before challenge, read-out: inhibition (%).
[15] abbreviates: 5 min, oral, 5 minutes before challenge.
The mark [16] stands for this setting: 0.25 h, oral, 15 minutes before challenge.
The mark [17] stands for this setting: 0.5 h, oral, 30 minutes before challenge.
[18] abbreviates: 1 h, oral, 60 minutes before challenge.
The mark [19] stands for this setting: 2 h, oral, 120 minutes before challenge.

For the molecule `O=C(/C=C/c1ccsc1)Nc1nn[nH]n1` [VAL 47-034, N-1H-tetrazol-5-yl-[3-(3-thienyl)]-acrylamide trans isomer], the inhibition in vivo at 3 mg/kg in series [1] (setting [5]) came to 0%; in series [4] (immediately before challenge), 48.6%. Further, the inhibition in vivo at 10 mg/kg in series [1] (setting [6]) is 0%; in series [4] (immediately before challenge), 63.5%. The inhibition in vivo at 30 mg/kg in series [1] (setting [7]) is 53.4%; in series [3] (setting [8]), 64.5%; in series [3] (setting [9]) it was 36%; in series [3] (setting [10]), 41.9%; in series [3] (setting [11]) it was 6.9%; in series [3] (setting [12]), 0%. In addition, in series [2], the mortality (commonly the percentage killed) came out at 25%. Also, the “No. (dead)” value with mouse (oral, 1000 mg/kg/os, 8 treated) amounted to 2. For the same molecule, the inhibition in vivo at 1 mg/kg in series [4] (setting [13]) came to 1.3%. In addition, the ED50 (commonly the midpoint of the dose-response relation) in series [4] (immediately before challenge) is 4.74 mg/kg.
Take `O=C(/C=C/c1ccncc1)Nc1nn[nH]n1` [VAL 47-042, N-1H-tetrazol-5-yl-[3-(4-pyridyl)]-acrylamide trans isomer]: the values for the inhibition in vivo at 3 mg/kg in series [1] (setting [5]) and in series [4] (immediately before challenge) were 0% and 77.8%, respectively. Besides, the inhibition in vivo at 10 mg/kg in series [1] (setting [6]) worked out at 5.3%. Moreover, the inhibition in vivo at 30 mg/kg is 21.4% in series [1] (setting [7]); 6.3% in series [3] (setting [8]); 0% in series [3] (setting [9]); 0.5% in series [3] (setting [10]); 0% in series [3] (setting [11]); 0% in series [3] (setting [12]). The mortality in series [2] was 0%. In addition, in the series on mouse (oral, 1000 mg/kg/os, 8 treated), the “No. (dead)” value is recorded as 0. Further, the inhibition in vivo at 0.3 mg/kg in series [4] (setting [14]) worked out at 3.9%. For the same molecule, the inhibition in vivo at 1 mg/kg in series [4] (setting [13]) is 41.7%. In series [4] (immediately before challenge), the ED50 was 1.28 mg/kg.
For the molecule `O=C(/C=C/c1ccccn1)Nc1nn[nH]n1` [VAL 47-055, N-1H-tetrazol-5-yl-[3-(2-pyridyl)]-acrylamide trans isomer], the inhibition in vivo at 1 mg/kg is 22.5% in series [1] (5 minutes before challenge) and 47.5% in series [4] (setting [13]). Also, the inhibition in vivo at 3 mg/kg in series [1] (setting [5]) amounted to 28.3%; in series [4] (immediately before challenge) it was 85.9%. The inhibition in vivo at 10 mg/kg amounted to 52.9% in series [1] (setting [6]); 45.6% in series [3] (setting [15]); 0.5% in series [3] (setting [16]); 0% in series [3] (setting [17]); 4.7% in series [3] (setting [18]); 0% in series [3] (setting [19]). The inhibition in vivo at 30 mg/kg in series [1] (setting [7]) was found to be 81%. In addition, the 50% effective dose (ED50) was found to be 7.94 mg/kg in series [1] (5 minutes before challenge) and 1.54 mg/kg in series [4] (immediately before challenge). For the same molecule, in series [1], the “ED50 OS/ED50 iv” value came out at 5.15. The mortality in series [2] came to 0%. In addition, the “No. (dead)” value with mouse (mouse, in vivo, po, 1000 mg/kg) is 0. Further, in series [4] (setting [14]), the inhibition in vivo at 0.3 mg/kg is 5.6%.
For `O=C(/C=C/c1ccnc2ccccc12)Nc1nn[nH]n1` [VAL 47-067, N-1H-TETRAZOL-5-YL-[3-(4-QUINOLYL)] […] ISOMER], in series [1], the inhibition in vivo at 3 mg/kg worked out at 8.3%. The inhibition in vivo at 10 mg/kg in series [1] came to 0%. The inhibition in vivo at 30 mg/kg in series [1] worked out at 16.7%; in series [3] (po, 5 min), 50.5%; in series [3] (po, 0.25 h), 29.3%; in series [3] (po, 0.5 h), 13.3%; in series [3] (po, 1 h) it was 0%; in series [3] (po, 2 h) it was 0%. Besides, in series [2], the mortality worked out at 12.5%. Besides, the “No. (dead)” value in the series with mouse (oral, 1000 mg/kg/os, 8 treated) came to 1. In addition, the ED50 in series [4] came to 0.35 mg/kg. Moreover, the inhibition in vivo at 0.1 mg/kg in series [4] (read-out: inhibition (%)) turned out to be 1.1%. In addition, the inhibition in vivo at 0.3 mg/kg in series [4] (read-out: inhibition (%)) turned out to be 53.6%. Moreover, the inhibition in vivo at 1 mg/kg in series [4] (read-out: inhibition (%)) is 81.8%.
With `Cc1ccc(/C=C/C(=O)Nc2nn[nH]n2)o1` [VAL 47-073, N-1H-tetrazol-5-yl-[3-[5-methyl-(2-furyl)]]-acrylamide trans isomer], in series [1] (5 minutes before challenge), the inhibition in vivo at 0.3 mg/kg was 22%. For the same molecule, the inhibition in vivo at 1 mg/kg was found to be 44% in series [1] (5 minutes before challenge); 52.6% in series [3] (setting [15]); 7.8% in series [3] (setting [16]); 19.8% in series [3] (setting [17]); 0% in series [3] (setting [18]); 0% in series [3] (setting [19]). The inhibition in vivo at 1 mg/kg in series [4] (setting [13]) was 3.4%. Further, the inhibition in vivo at 3 mg/kg is 87.5% in series [1] (setting [5]) and 50.7% in series [4] (immediately before challenge). Besides, the inhibition in vivo at 10 mg/kg in series [1] (setting [6]) turned out to be 89.3%; in series [4] (immediately before challenge), 95.1%. The 50% effective dose (ED50) in series [1] (5 minutes before challenge) came out at 0.92 mg/kg; in series [4] (immediately before challenge) it was 3.13 mg/kg. In series [1], the “ED50 OS/ED50 iv” value turned out to be 0.29. For the same molecule, in series [2], the mortality amounted to 0%. In the series on mouse (mouse, in vivo, po, 1000 mg/kg), the “No. (dead)” value is recorded as 0. The “toxicity (in words)” value in the series on mouse (oral, mouse) was “do not determine any toxic effect”.
Take `Cc1ccc(/C=C\C(=O)Nc2nn[nH]n2)o1` [VAL 47-073cis, N-1H-tetrazol-5-yl-[3-[5-methyl-(2-furyl)]]-acrylamide cis isomer]: the inhibition in vivo at 0.3 mg/kg in series [1] (5 minutes before challenge) amounted to 25.1%. Moreover, the inhibition in vivo at 1 mg/kg in series [1] (5 minutes before challenge) was found to be 42.6%; in series [4] (setting [13]), 6.6%. Besides, the inhibition in vivo at 3 mg/kg in series [1] (setting [5]) came out at 67.2%; in series [3] (setting [15]) it was 50.8%; in series [3] (setting [16]), 66.4%; in series [3] (setting [17]), 17.3%; in series [3] (setting [18]) it was 5.8%; in series [3] (setting [19]), 0%. In series [4] (immediately before challenge), this molecule returned an inhibition in vivo at 3 mg/kg of 25%. In addition, the values for the ED50 in series [1] (5 minutes before challenge) and in series [4] (immediately before challenge) were 1.26 mg/kg and 5.76 mg/kg, respectively. Moreover, in series [1], the “ED50 OS/ED50 iv” value amounted to 0.22. For the same molecule, in series [2], the mortality amounted to 12.5%. In the series on mouse (mouse, in vivo, po, 1000 mg/kg), the “No. (dead)” value is listed as 1. Also, in series [4] (immediately before challenge), the inhibition in vivo at 10 mg/kg was 69.4%.
On to `O=C(/C=C/c1ccc[nH]1)Nc1nn[nH]n1` [VAL 47-078, N-1H-tetrazol-5-yl-[3-(2-pyrrole)]-acrylamide trans isomer], for which the values for the inhibition in vivo at 3 mg/kg in series [1] (setting [5]) and in series [4] (immediately before challenge) were 7.4% and 41.3%, respectively. Besides, the inhibition in vivo at 10 mg/kg was determined as 35.8% in series [1] (setting [6]) and 78.6% in series [4] (immediately before challenge). In addition, the inhibition in vivo at 30 mg/kg in series [1] (setting [7]) is 38.3%; in series [3] (setting [8]), 31.4%; in series [3] (setting [9]), 29.3%; in series [3] (setting [10]), 9%; in series [3] (setting [11]), 4.3%; in series [3] (setting [12]) it was 0.5%. Further, the mortality in series [2] turned out to be 0%. The “No. (dead)” value in the series with mouse (oral, 1000 mg/kg/os, 8 treated) is 0. Also, the inhibition in vivo at 1 mg/kg in series [4] (setting [13]) is 11.2%. Moreover, in series [4] (immediately before challenge), the 50% effective dose (ED50) was determined as 3.85 mg/kg.
